{
  "source": "patent US20020182749A1",
  "about": "“Sample evaporative control” (ACLARA BioSciences, Inc., priority 1999, published 2002)",
  "key": {"alkaline phosphatase [1]": {"tested_on": "alkaline phosphatase", "assay": "competitive inhibition assay, alkaline phosphatase with AutoPhos substrate", "assay_type": "biochemical", "procedure": "The next study evaluated the system using a competitive inhibition assay, 4-Nitrophenyl phosphate (PNPP) (Sigma Chemical Co., St. Louis, Mo.) was used as a non-fluorescent substrate for alkaline phosphatase (20 femtomoles) competing with the AutoPhos substrate. The channel was rinsed with AutoPhos buffer and filled with […] AutoPhos substrate. Into the sample port was introduced 100 nl of PNPP at concentrations varying from 0 to 10 mM and the fluorescent signal was determined at different reaction time points.\nThe channel was rinsed with AutoPhos buffer and then filled with about 10 μl of 1 mM AutoPhos substrate. 50 nl of alkaline phosphatase was then dispensed into the sample port. The amount of enzyme dispensed into the sample port increased from 31.25 attomole to 62.5 femtomoles by a factor of 2. Enzyme solutions of different concentrations were prepared in individual wells of a 96-well microtitre plate. Fluorescence was excited at 480 nm±20 nm and emission collected at 520±20 nm. The signals were recorded at different time points, 0, 5, 10, 15, up to 35 minutes.\nThe next assay was a competitive inhibition assay using the following protocol: 4-Nitrophenyl phosphate (PNPP) was used as a non-fluorescent substrate for competing for alkaline phosphatase with AutoPhos substrate. After rinsing the channels with AutoPhos buffer, the channel was filled with 1 mM AutoPhos substrate. 100 nl of PNPP was dispensed at different concentrations ranging form 0 to 60 mM. The fluorescent signal was measured at different reaction time points. The fluorescent signal as a function of different inhibitor concentrations is tabulated as following."}, "alkaline phosphatase [2]": {"tested_on": "alkaline phosphatase", "assay": "alkaline phosphatase inhibition study on capillary electrophoresis card, FDP substrate", "assay_type": "biochemical", "conditions": "1.3 mU/ml alkaline phosphatase, 3.33 μM FDP, increasing PNPP", "procedure": "The experimental procedure was as follows: the assay well is covered by tape. 5 μl of buffer was added to the reservoirs. 500 nl of the fluorescein or assay mixture was pipetted into the assay well. For the alkaline phosphatase assay, enzyme and substrate with or without inhibitor was mixed in a tube and then 500 nl of the assay mixture was pipetted into the assay well. The detection was performed at 7 mm distance from the injector. The particular conditions for each determination are set forth with the figure.\nFIG. 17 illustrates the alkaline phosphatase activity for the different incubation times. As shown in the electropherograms, two product peaks (the first peak is fluorescein mono phosphate and the 2nd peak is fluorescein) are well separated from each other. Additionally, the use of longer incubation time results in more conversion of FDP (fluorescein di-phosphate as a substrate) to the FMP (fluorescein mono-phosphate) and finally to fluorescein. FIG. 18 depicts a linear calibration curve for the alkaline phosphatase using the card. For the inhibition study, PNPP which is a non-fluorescent substrate for the alkaline phosphatase and competes with FDP which is a fluorescent substrate for the enzyme, is added to the assay mixture at a number of different concentrations."}, "rhodamine-streptavidin": {"molecular_target": "rhodamine-streptavidin (Streptomyces avidinii, UniProt P22629)", "sequence (P22629 25-183)": "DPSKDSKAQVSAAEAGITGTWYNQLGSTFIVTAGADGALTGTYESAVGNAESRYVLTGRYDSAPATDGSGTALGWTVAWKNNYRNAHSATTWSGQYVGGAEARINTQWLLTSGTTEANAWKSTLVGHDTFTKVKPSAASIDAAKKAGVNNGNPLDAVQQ", "assay": "FRET binding inhibition, fluorescein-biotin / rhodamine-streptavidin, read at 600 nm", "conditions": "fluorescein-biotin 50 μM, rhodamine-streptavidin 25 μM, varying biotin", "procedure": "In another series of studies binding assays were performed using fluorescence resonance energy transfer. The procedure employed is as follows. The channel was rinsed and filled with 25 μl of rhodamine labeled streptavidin and 100 nl of fluorescein labeled biotin dispensed in the sample port. The concentration of the antigen varied from 0 to 100 μM by 2-fold dilutions. The signal detection system was as described, except that emission was detected at 600±20 nm. The energy transfer increased corresponding to the increase in antigen. The study was repeated varying the amount of labeled streptavidin while keeping the biotin-fluorescein at 25 μM. The background FRET signal contributed by rhodamine-streptavidin alone was substantially negligible, when the concentration of rhodamine-streptavidin was greater than about 2 μM. The following tables provide the results for the two studies.\nIn the next study, the effect of inhibitor on the observed signal was investigated. Fluorescein-biotin was maintained at 50 μM and rhodamine-streptavidin at 25 μM. the signal was read at 600±20 nm at varying concentrations of biotin as a binding inhibitor, with 100 nl of the binding inhibitor being added to the sample port."}, "[3]": {"molecular_target": "T1, rhodamine-labeled streptavidin (Streptomyces avidinii, UniProt P22629)", "T1 construct": "purchased Molecular Probe", "T1 sequence (P22629 25-183)": "as above", "assay": "inhibition of antigen-receptor binding, fluorescein-biotin / rhodamine-labeled streptavidin, read at 520 nm", "procedure": "In the next study, the channel was filled with varying concentrations of biotin in the range of 0 to 5 μM and 100 nl of rhodamine-labeled streptavidin (625 nM) followed by 100 nl of 1.0 μM fluorescein-biotin added to the sample port. After incubating for 60 min., the signal was detected at 520±20 nm. The results are reported as fraction inhibition. The following tables provide the results.\nUsing the above reagents and protocol, an inhibition assay was performed. The protocol was to fill the channel with 0, 30, 60, 180, 240, 500, 600, 1000, 5000 […] of biotin, respectively, followed by dispensing 100 nl of rhodamine labeled receptor into the sample port. After dispensing 100 nl of 1.0 μM fluorescein labeled antigen into the sample port, the reaction mixture was incubated for 60 minutes. The fluorescence was recorded by exciting at 480±20 nm and reading the emission at 520 nm±20 nm As the inhibitor concentration increased, the fluorescence intensity increased, indicating an increased inhibition. The increase in the fluorescent signal as a function of inhibitor concentration was converted to the percentage of inhibition."}, "CYP1A2": {"molecular_target": "CYP1A2 (Homo sapiens, UniProt P05177)", "sequence (P05177 whole entry)": "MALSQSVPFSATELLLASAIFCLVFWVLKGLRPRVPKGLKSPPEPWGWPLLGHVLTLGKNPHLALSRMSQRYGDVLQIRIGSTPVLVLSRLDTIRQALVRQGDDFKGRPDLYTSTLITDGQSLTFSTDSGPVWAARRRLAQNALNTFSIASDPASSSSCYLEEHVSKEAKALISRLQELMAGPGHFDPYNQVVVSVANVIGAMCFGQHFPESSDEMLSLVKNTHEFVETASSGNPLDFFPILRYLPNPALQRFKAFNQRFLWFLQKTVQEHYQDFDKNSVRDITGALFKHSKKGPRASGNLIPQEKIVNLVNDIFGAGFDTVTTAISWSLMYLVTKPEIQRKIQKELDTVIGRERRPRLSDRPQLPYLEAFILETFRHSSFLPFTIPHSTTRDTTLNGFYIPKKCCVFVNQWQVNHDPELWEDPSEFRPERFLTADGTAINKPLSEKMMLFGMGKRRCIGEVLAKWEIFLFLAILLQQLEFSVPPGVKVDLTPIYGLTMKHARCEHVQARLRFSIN", "assay": "in vitro", "description": "B: Inhibition in CYP450 1A2 Assay:\nMake 500 M CEC substrate for 1A2.\nFor each of the dilutions of furafylline make Buffer Mix:\nAdd 5 μl of the buffer mix to both of the side wells of the channels. Because the solution contains Pluronic F68, the solution in the middle assay well rises to the top. Dilute CYP1A2 enzyme 2:1 with water.\nAdd 300 nl of diluted enzyme to assay (middle) well.\nIncubate at 37° C. for 35 minutes.\nTake RFU readings using Molecular Devices F-max plate reader. F-max settings: Filter pair 390/460; Int.20 ms; speed 10."}, "alkaline phosphatase [4]": {"tested_on": "alkaline phosphatase", "assay": "alkaline phosphatase inhibition in device ports, fluorescein diphosphate substrate", "assay_type": "biochemical", "conditions": "30 nl 0.1 nM enzyme", "text": "The upper plate is about 1 mm in height and the lower plate is also about 1 mm in height. The port for introducing solutions is 1 mm in diameter and about 900 to 950 μm in height, while the channel substantially extends the remaining length of the upper sheet. The channel was varied from about 0.2 mm to 3.0 mm in width, where the interface between the port or well and the channel varied, with either the port or the channel determining the area of interface. The reservoirs have a diameter of about 2 mm. The channels were treated with 2N sodium hydroxide for 5 mins. using a vacuum pump to ensure that the basic solution extends through the channels and reservoirs. The ports or wells appear to be unaffected by this treatment, so that the channels and reservoirs have a hydrophilic surface, while the ports have a hydrophobic surface. One or more of the ports are used in each of the studies. Common to each of the experiments is to fill the device with 10 μl of 25 μM fluorescein diphosphate in 50 mM Tris buffer (pH 10.0) added to each of the inlet reservoirs, after prewetting the device.\nIn the next study, the effect of enzyme inhibitor was investigated. The channel was 1 mm in width. […] The fluorescence development is monitored with a CCD camera. Fluorescence is substantially confined to the ports and the fluorescent signal is related to the concentration of inhibitor introduced into the port."}, "[5]": {"conditions": "read-out: Fraction of Inhibition"}},
  "note": "Read-outs that look alike come from different tables or passages of the source.",
  "data": [
    {"smiles": "O=[N+]([O-])c1ccc(OP(=O)(O)O)cc1", "note": "[PNPP, 4-Nitrophenyl phosphate]", "values": [
      {"measurement": "Fluorescent Signal", "setting": "alkaline phosphatase [1]; Inhibitor conc. 0.001 mM", "value": "4.5 ×103"},
      {"measurement": "Fluorescent Signal", "setting": "alkaline phosphatase [1]; Inhibitor conc. 0.0025 mM", "value": "4.0 ×103"},
      {"measurement": "Fluorescent Signal", "setting": "alkaline phosphatase [1]; Inhibitor conc. 0.005 mM", "value": "4.0 ×103"},
      {"measurement": "Fluorescent Signal", "setting": "alkaline phosphatase [1]; Inhibitor conc. 0.01 mM", "value": "3.5 ×103"},
      {"measurement": "Fluorescent Signal", "setting": "alkaline phosphatase [1]; Inhibitor conc. 0.02 mM", "value": "2.6 ×103"},
      {"measurement": "Fluorescent Signal", "setting": "alkaline phosphatase [1]; Inhibitor conc. 0.3125 mM", "value": "2.0 ×103"},
      {"measurement": "Fluorescent Signal", "setting": "alkaline phosphatase [1]; Inhibitor conc. 0.625 mM", "value": "1.6 ×103"},
      {"measurement": "Fluorescent Signal", "setting": "alkaline phosphatase [1]; Inhibitor conc. 1.25 mM", "value": "1.6 ×103"},
      {"measurement": "Fluorescent Signal", "setting": "alkaline phosphatase [1]; Inhibitor conc. 5 mM", "value": "1.6 ×103"},
      {"measurement": "Fluorescent Signal", "setting": "alkaline phosphatase [1]; Inhibitor conc. 10 mM", "value": "1.5 ×103"},
      {"measurement": "Fluorescence Signal", "setting": "alkaline phosphatase [1]; [Inhibitor] 0.001 mM", "value": 4527, "unit": "RFU"},
      {"measurement": "Fluorescence Signal", "setting": "alkaline phosphatase [1]; [Inhibitor] 0.0025 mM", "value": 4000, "unit": "RFU"},
      {"measurement": "Fluorescence Signal", "setting": "alkaline phosphatase [1]; [Inhibitor] 0.005 mM", "value": 4000, "unit": "RFU"},
      {"measurement": "Fluorescence Signal", "setting": "alkaline phosphatase [1]; [Inhibitor] 0.01 mM", "value": 3500, "unit": "RFU"},
      {"measurement": "Fluorescence Signal", "setting": "alkaline phosphatase [1]; [Inhibitor] 0.02 mM", "value": 2600, "unit": "RFU"},
      {"measurement": "Fluorescence Signal", "setting": "alkaline phosphatase [1]; [Inhibitor] 0.3125 mM", "value": 2000, "unit": "RFU"},
      {"measurement": "Fluorescence Signal", "setting": "alkaline phosphatase [1]; [Inhibitor] 0.625 mM", "value": 1600, "unit": "RFU"},
      {"measurement": "Fluorescence Signal", "setting": "alkaline phosphatase [1]; [Inhibitor] 1.25 mM", "value": 1600, "unit": "RFU"},
      {"measurement": "Fluorescence Signal", "setting": "alkaline phosphatase [1]; [Inhibitor] 5 mM", "value": 1600, "unit": "RFU"},
      {"measurement": "Fluorescence Signal", "setting": "alkaline phosphatase [1]; [Inhibitor] 10 mM", "value": 1500, "unit": "RFU"},
      {"measurement": "Fluorescence Signal", "setting": "alkaline phosphatase [1]; [Inhibitor] 60 mM", "value": 750, "unit": "RFU"},
      {"measurement": "effect on FDP alkaline phosphatase activity", "setting": "alkaline phosphatase [2]", "value": "reduction of FDP alkaline phosphates activity"}
    ]},
    {"smiles": "O=C(O)CCCC[C@@H]1SC[C@@H]2NC(=O)N[C@@H]21", "note": "[biotin, D(+)-Biotin]", "values": [
      {"measurement": "energy transfer (FRET signal at 600 nm)", "setting": "rhodamine-streptavidin", "value": "decreased with increase of binding inhibitor"},
      {"measurement": "inhibition at 0.03 µM", "setting": "[3]; read-out: % of Inhibition", "value": 3.85, "unit": "%"},
      {"measurement": "inhibition at 0.06 µM", "setting": "[3]; read-out: % of Inhibition", "value": 3.1, "unit": "%"},
      {"measurement": "inhibition at 0.18 µM", "setting": "[3]; read-out: % of Inhibition", "value": 5, "unit": "%"},
      {"measurement": "inhibition at 0.24 µM", "setting": "[3]; read-out: % of Inhibition", "value": 5.14, "unit": "%"},
      {"measurement": "inhibition at 0.5 µM", "setting": "[3]; read-out: % of Inhibition", "value": 22.4, "unit": "%"},
      {"measurement": "inhibition at 0.6 µM", "setting": "[3]; read-out: % of Inhibition", "value": 36.6, "unit": "%"},
      {"measurement": "inhibition at 1 µM", "setting": "[3]; read-out: % of Inhibition", "value": 95, "unit": "%"},
      {"measurement": "inhibition at 5 µM", "setting": "[3]; read-out: % of Inhibition", "value": 100, "unit": "%"},
      {"measurement": "inhibition at 0.03 µM", "setting": "[3]; [5]", "value": 3.85, "unit": "%"},
      {"measurement": "inhibition at 0.06 µM", "setting": "[3]; [5]", "value": 3.1, "unit": "%"},
      {"measurement": "inhibition at 0.18 µM", "setting": "[3]; [5]", "value": 5, "unit": "%"},
      {"measurement": "inhibition at 0.24 µM", "setting": "[3]; [5]", "value": 5.14, "unit": "%"},
      {"measurement": "inhibition at 0.5 µM", "setting": "[3]; [5]", "value": 22.4, "unit": "%"},
      {"measurement": "inhibition at 0.6 µM", "setting": "[3]; [5]", "value": 36.6, "unit": "%"},
      {"measurement": "inhibition at 1 µM", "setting": "[3]; [5]", "value": 95, "unit": "%"},
      {"measurement": "inhibition at 5 µM", "setting": "[3]; [5]", "value": 100, "unit": "%"}
    ]},
    {"smiles": "Cc1nc2c([nH]1)c(=O)n(C)c(=O)n2Cc1ccco1", "note": "[furafylline]", "values": [
      {"measurement": "inhibition at 35 min, 0.133 µM", "setting": "CYP1A2", "value": 2, "unit": "%"},
      {"measurement": "inhibition at 35 min, 0.665 µM", "setting": "CYP1A2", "value": 31, "unit": "%"},
      {"measurement": "inhibition at 35 min, 1.33 µM", "setting": "CYP1A2", "value": 64, "unit": "%"},
      {"measurement": "inhibition at 35 min, 6.65 µM", "setting": "CYP1A2", "value": 72, "unit": "%"},
      {"measurement": "inhibition at 35 min, 13.3 µM", "setting": "CYP1A2", "value": 75, "unit": "%"},
      {"measurement": "inhibition at 35 min, 66.5 µM", "setting": "CYP1A2", "value": 77, "unit": "%"},
      {"measurement": "inhibition at 35 min, 133 µM", "setting": "CYP1A2", "value": 78, "unit": "%"}
    ]},
    {"smiles": "Cc1ncc(COP(=O)(O)O)c(C=O)c1O", "note": "[pyridoxal phosphate]", "values": [
      {"measurement": "fluorescence development in port", "setting": "alkaline phosphatase [4]; 30 nl of 25 μM inhibitor", "value": "only moderately inhibited"},
      {"measurement": "fluorescence development in port", "setting": "alkaline phosphatase [4]; 30 nl of 250 μM inhibitor, at 30 mins", "value": "still very faint"}
    ]}
  ]
}
